What was measured:
[1] = target: T1, D6PK (His-D6PK) (Arabidopsis thaliana, UniProt Q9FG74); experiment: surface plasmon resonance (Biacore 8K), steady state affinity model; format: binding
T1 construct: His-tagged recombinant D6PK, expressed in E. coli BL21 (DE3), Ni-NTA purified
T1 sequence (Q9FG74 1-498): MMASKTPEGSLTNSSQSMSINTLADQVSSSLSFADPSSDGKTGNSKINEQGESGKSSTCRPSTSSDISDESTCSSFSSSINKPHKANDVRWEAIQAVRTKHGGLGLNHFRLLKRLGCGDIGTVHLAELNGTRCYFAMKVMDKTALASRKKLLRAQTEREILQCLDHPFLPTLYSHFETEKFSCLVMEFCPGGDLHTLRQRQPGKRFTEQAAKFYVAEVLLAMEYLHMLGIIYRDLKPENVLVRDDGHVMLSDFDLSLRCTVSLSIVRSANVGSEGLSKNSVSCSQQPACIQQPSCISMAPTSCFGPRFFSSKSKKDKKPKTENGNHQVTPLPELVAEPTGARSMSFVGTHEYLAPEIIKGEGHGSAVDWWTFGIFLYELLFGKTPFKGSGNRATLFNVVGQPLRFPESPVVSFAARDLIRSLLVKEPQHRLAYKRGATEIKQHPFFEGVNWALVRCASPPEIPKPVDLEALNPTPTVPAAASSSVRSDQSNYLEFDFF

[2] = target: T1, D6PK (His-D6PK); experiment: in vitro kinase assay, […]ATP autoradiography of His-PIN1-HL phosphorylation; format: biochemical; details: partial, dose-dependent inhibition; substrate His-PIN1-HL; 10 mM ATP (so in the source), 10 mM MgCl2, 1 mM DTT, Tris-HCl pH 7.5, 25 °C, 60 min

Kd [1]: ~334 µM
SMILES: O=C(O)C=Cc1ccc(-c2ccc(Cl)c(Cl)c2)o1 [gravacin, 3-(5-[3,4-dichlorophenyl]-2-furyl)-acrylic acid]
in vitro kinase assay, [32P]ATP autoradiography of His-PIN1-HL phosphorylation [2]: His-D6PK-induced phosphorylation of His-PIN1 was partially suppressed by gravacin in a dose-dependent manner

— article PMC11938129, “Gravacin as an inhibitor of the auxin transport-activating protein kinase D6PK in Arabidopsis” (Frontiers in Plant Science, 2025)
